Where a name gives a salt, the structure may show the parent alone.
Target: farnesyl transferase (Homo sapiens, UniProt P49354+P49356)
Experiment: Farnesyl transferase inhibition, [3H]-farnesylation of biotinylated K-ras C-terminal peptide (SPA assay)
Type: biochemical
Settings: In vitro inhibitory activity (K-Ras) IC50, K-Ras substrate; 60 min at 37° C.; mean of two IC50 values
Procedure: The farnesyl transferase activity was measured by the amount farnesylated of K-ras substrate or of substrate derived from the peptide corresponding to its C-terminal part, the farnesyl group being introduced by farnesyl pyrophosphate (FPP).
It was then brought into contact with PVT-streptavidin (Amersham)® beads and was quantified by proximity scintillation (SPA assay) between the tritium and the PVT beads, by virtue of the streptavidin/biotin interaction.
Experimentally, farnesyl transferase purified according to the appended protocol was diluted, for this assay, to a concentration such that a consumption of substrates of less than 30% was obtained.
The reaction, carried out in Optiplates 96° microtitration plates, was initiated by the enzyme and lasted sixty minutes at 37° C. It was stopped by addition of 150 μl of mixture of a blocking buffer at pH 4 composed of 0.2M H3 PO4, 1.5 mM MgCl2, 0.5% (w/v) BSA, 0.05% (w/v) sodium azide containing 200 μg of PVT-streptavidin beads.
After slow agitation for thirty minutes (in order to remove the chemiluminescence), the plates were read as [^3 H]CPM in a Top Count® (Packard) scintillation counter for microplates, where they were converted into [^3 H]DPM from a range of coloured agent attenuating the scintillation (quenching).
The percentages of inhibition were calculated with respect to an inhibitor-free control after subtraction from all the values of that of a blank which only contained the substrates and the buffer.
The IC50 values were calculated or measured, from the inhibitions obtained at nine different concentrations, with Enzfitter® or Grafit® software. The IC50 values which appear in the results are the mean of measurements and calculations of two IC50 values.

Compound | IC50 [nM]
C=C(C(=O)N1C[C@@H]2[C@@]3(c4ccsc4)CC[C@@H](c4ccccc43)[C@]2(C(=O)O)C1)c1ccccc1OC (racemic) [Example 58, (3aRS,4SR,9SR,9aRS)-4,9-ethano-2-[2-(2-methoxyphenyl)propenoyl]-9-(3-thienyl)-2,3,3a,4,9,9a-hexahydro-1H-benzo[f]isoindole-3a-carboxylic Acid] | 138

Same assay, conditions: K-Ras substrate; 60 min at 37° C.; mean of two IC50 values; read-out: In vitro inhibitory activity (K-Ras) IC50

IC50 [nM] | Compound
558 | C=C(C(=O)N1C[C@@H]2[C@@]3(c4c[nH]c5ccccc45)CC[C@@H](c4ccccc43)[C@]2(C(=O)OC)C1)c1ccccc1OC (racemic) [Example 55, methyl (3aRS,4SR,9SR,9aRS)-4,9-ethano-2-[2-(2-methoxyphenyl)propenoyl]-9-(3-indolyl)-2,3,3a,4,9,9a-hexahydro-1H-benzo[f]isoindole-3a-carboxylate]
404 | C=C(C(=O)N1C[C@@H]2[C@]3(c4cccc(Cl)c4)CC[C@@H](c4ccccc43)[C@]2(C(=O)OC)C1)c1ccccc1OC (racemic) [Example 88, methyl (3aRS,4SR,9SR,9aRS)-9-(3-chlorophenyl)-4,9-ethano-2-[2-(2-methoxyphenyl)propenoyl]-2,3,3a,4,9,9a-hexahydro-1H-benzo[f]isoindole-3a-carboxylate]
132 | C=C(C(=O)N1C[C@@H]2[C@]3(c4ccc5ccccc5c4)CC[C@@H](c4ccccc43)[C@]2(C(=O)O)C1)c1ccccc1OC (relative stereo) [Example 46, sodium salt of (3aRS,4SR,9SR,9aRS)-4,9-ethano-2-[2-(2-methoxyphenyl)propenoyl]-9-(2-naphthyl)-2,3,3a,4,9,9a-hexahydro-1H-benzo[f]isoindole-3a-carboxylic Acid]
131 | C=C(C(=O)N1C[C@H]2[C@@]3(c4ccc(C)cc4)CC[C@H](c4ccccc43)[C@@]2(C(=O)NN(C)C)C1)c1ccccc1OC (relative stereo) [Example 22, (3aRS,4SR,9SR,9aRS)-4,9-ethano-2-[2-(2-methoxyphenyl)propenoyl]-9-(4-methylphenyl)-2,3,3a,4,9,9a-hexahydro-1H-benzo[f]isoindole-3a-N',N'-dimethylcarbohydrazide]
50 | C=C(C(=O)N1C[C@H]2[C@@]3(c4ccc(C)cc4)CC[C@H](c4ccccc43)[C@@]2(C(=O)NCc2cccnc2)C1)c1ccccc1OC (single isomer, unassigned) [Example 18, Dextrorotatory Enantiomer of (3aRS,4SR,9SR,9aRS)-4,9-ethano-2-[2-(2-methoxyphenyl)propenoyl]-9-(4-methylphenyl)-2,3,3a,4,9,9a-hexahydro-1H-benzo[f]isoindole-3a-N-(3-pyridylmethyl)carboxamide]
28 | C=C(C(=O)N1C[C@H]2[C@@]3(c4cccc(N(C)C)c4)CC[C@H](c4ccccc43)[C@@]2(C(=O)O)C1)c1ccccc1OC (relative stereo) [Example 92, (3aRS,4SR,9SR,9aRS)-9-(3-N,N-dimethylaminophenyl)-4,9-ethano-2-[2-(2-methoxyphenyl)propenoyl]-2,3,3a,4,9,9a-hexahydro-1H-benzo[f]isoindole-3a-carboxylic Acid]
207 | C=C(C(=O)N1C[C@H]2[C@@]3(c4ccc(C)s4)CC[C@@H](c4ccccc43)[C@]2(C(=O)OC)C1)c1ccccc1OC (racemic) [Example 47, methyl (3aRS,4SR,9SR,9aRS)-4,9-ethano-2-[2-(2-methoxyphenyl)propenoyl]-9-(5-methyl-2-thienyl)-2,3,3a,4,9,9a-hexahydro-1H-benzo[f]isoindole-3a-carboxylate]
589 | COc1ccccc1CC(=O)N1C[C@@H]2[C@]3(c4ccc(C(C)C)cc4)CC[C@@H](c4ccccc43)[C@]2(C(=O)O)C1 (racemic) [Example 56, (3aRS,4SR,9SR,9aRS)-4,9-ethano-9-(4-isopropylphenyl)-2-[(2-methoxyphenyl)acetyl]-2,3,3a,4,9,9a-hexahydro-1H-benzo[f]isoindole-3a-carboxylic Acid]
67 | C=C(C(=O)N1C[C@H]2[C@@]3(c4ccc(OC)cc4)CC[C@H](c4ccccc43)[C@@]2(C(=O)NCc2ccsc2)C1)c1ccccc1OC (relative stereo) [Example 80, (3aRS,4SR,9SR,9aRS)-4,9-ethano-9-(4-methoxyphenyl)-2-[2-(2-methoxyphenyl)propenoyl]-2,3,3a,4,9,9a-hexahydro-1H-benzo[f]isoindole-3a-N-(3-thienylmethyl)carboxamide]
1800 | C=C(C(=O)N1C[C@H]2[C@@]3(c4ccc(C)cc4)CC[C@H](c4ccccc43)[C@@]2(C(=O)O)C1)c1ccccc1OC (single isomer, unassigned) [Example 4, laevorotatory enantiomer of (3aRS,4SR,9RS,9aRS)-4,9-ethano-2-[2-(2-methoxyphenyl)propenoyl]-9-(4-methylphenyl)-2,3,3a,4,9,9a-hexahydro-1H-benzo[f]isoindole-3a-carboxylic acid]
78 | C=C(C(=O)N1C[C@@H]2[C@]3(c4ccc(OC)c(C)c4)CC[C@@H](c4ccccc43)[C@]2(C(=O)O)C1)c1ccccc1OC (racemic) [Example 54, (3aRS,4SR,9SR,9aRS)-4,9-ethano-2-[2-(2-methoxyphenyl)propenoyl]-9-(4-methoxy-3-methylphenyl)-2,3,3a,4,9,9a-hexahydro-1H-benzo[f]isoindole-3a-carboxylic Acid]
64 | C=C(C(=O)N1C[C@H]2[C@@]3(c4cccc(F)c4)CC[C@H](c4ccccc43)[C@@]2(C(=O)NCc2cccnc2)C1)c1ccccc1OC (relative stereo) [Example 87, (3aRS,4SR,9SR,9aRS)-4,9-ethano-9-(3-fluorophenyl)-2-[2-(2-methoxyphenyl)propenoyl]-2,3,3a,4,9,9a-hexahydro-1H-benzo[f]isoindole-3a-N-(3-pyridylmethyl)carboxamide]

Further lines, the molecule ahead of its results:

Compound | IC50 [nM]
C=C(C(=O)N1C[C@@H]2[C@]3(c4ccc5c(c4)CCO5)CC[C@@H](c4ccccc43)[C@]2(C(=O)OC)C1)c1ccccc1OC (racemic) [Example 61, methyl (3aRS,4SR,9SR,9aRS)-9-(2,3-dihydrobenzofuran-5-yl)-4,9-ethano-2-[2-(2-methoxyphenyl)propenoyl]-2,3,3a,4,9,9a-hexahydro-1H-benzo[f]isoindole-3a-carboxylate] | 178
COc1ccccc1CC(=O)N1C[C@@H]2[C@]3(c4ccc(C)c(C)c4)CC[C@@H](c4ccccc43)[C@]2(C(=O)O)C1 (racemic) [Example 12, (3aRS,4SR,9SR,9aRS)-9-(3,4-dimethyl-phenyl)-4,9-ethano-2-[(2-methoxyphenyl)acetyl]-2,3,3a,4,9,9a-hexahydro-1H-benzo[f]isoindole-3a-carboxylic Acid] | 45
COc1ccccc1CC(=O)N1C[C@H]2[C@@]3(c4ccc(SC)cc4)CC[C@H](c4ccccc43)[C@@]2(C(=O)O)C1 (relative stereo) [Example 7, (3aRS,4SR,9SR,9aRS)-4,9-ethano-2-[(2-methoxyphenyl)acetyl]-9-(4-methylsulphanylphenyl)-2,3,3a,4,9,9a-hexahydro-1H-benzo[f]isoindole-3a-carboxylic Acid] | 50
C=C(C(=O)N1C[C@@H]2[C@]3(c4ccc(C(F)(F)F)cc4)CC[C@@H](c4ccccc43)[C@]2(C(=O)O)C1)c1ccccc1OC (racemic) [Example 40, (3aRS,4SR,9SR,9aRS)-4,9-ethano-2-[2-(2-methoxyphenyl)propenoyl]-9-[4-(trifluoromethyl)phenyl]-2,3,3a,4,9,9a-hexahydro-1H-benzo[f]isoindole-3a-carboxylic Acid] | 83
C=C(C(=O)N1C[C@@H]2[C@]3(c4ccc(C)cc4)CC[C@@H](c4ccccc43)[C@]2(C(=O)OC)C1)c1ccccc1OC (racemic) [Example 1, methyl (3aRS,4SR,9SR,9aRS)-4,9-ethano-2-[2-(2-methoxyphenyl)propenoyl]-9-(4-methylphenyl)-2,3,3a,4,9,9a-hexahydro-1H-benzo[f]isoindole-3a-carboxylate] | 305
C=C(C(=O)N1C[C@@H]2[C@]3(c4cccc(C)c4)CC[C@@H](c4ccccc43)[C@]2(C(=O)O)C1)c1ccccc1OC (racemic) [Example 69, (3aRS,4SR,9SR,9aRS)-4,9-ethano-2-[2-(2-methoxyphenyl)propenoyl]-9-(3-methylphenyl)-2,3,3a,4,9,9a-hexahydro-1H-benzo[f]isoindole-3a-carboxylic Acid] | 53
C=C(C(=O)N1C[C@@H]2[C@]3(c4ccc5c(c4)OCO5)CC[C@@H](c4ccccc43)[C@]2(C(=O)O)C1)c1ccccc1OC (racemic) [Example 70, (3aRS,4SR,9SR,9aRS)-9-(1,3-benzodioxol-5-yl)-4,9-ethano-2-[2-(2-methoxyphenyl)propenoyl]-2,3,3a,4,9,9a-hexahydro-1H-benzo[f]isoindole-3a-carboxylic Acid] | 67
C=C(C(=O)N1C[C@@H]2[C@]3(c4ccc(C)cc4)CC[C@@H](c4ccccc43)[C@]2(C(=O)NS(=O)(=O)c2ccccc2)C1)c1ccccc1OC (racemic) [Example 25, (3aRS,4SR,9SR,9aRS)-4,9-ethano-2-[2-(2-methoxyphenyl)propenoyl]-9-(4-methylphenyl)-3a-phenylsulphonylaminocarbonyl-2,3,3a,4,9,9a-hexahydro-1H-benzo[f]isoindole] | 193
